# Non-standard residues stand in square brackets, D forms with d. Residues, ends and D or L forms follow the SMILES beside them. No end group written: not given here.
# Tests used:
# Type in all cases: cell-based
# [1] = tested on: Streptomyces sindenensis (ATCC 12392); details: ATCC 12392, 4 h
# Experimental: (§1) Specifically, each type of bacteria was cultured in 3% (w/v) TSB (tryptic soy broth) liquid medium at 37° C. and 200 rpm for 4 hours, and then further cultured under the same conditions for 3 hours to a concentration of 5×10^6 CFU/ml. Strain solutions were prepared by diluting each of the further cultured strains with SP buffer to a final concentration of 2×10^5 CFU/ml.
# (§2) Then, the KU-5878 peptide at varying concentrations (0 μg/ml to 300 μg/ml) was dispensed into each well of a 96-well microplate, and 100 μl (1×10^5 CFU/ml) of each of the prepared strain solutions was added thereto, mixed therewith, and allowed to react with the peptide in an incubator at 37° C. for 1 hour.
# (§3) In addition, 10 μl of each reaction solution of the peptide and the strain was plated on the TS agar plate at a constant size, and incubated in an incubator at 37° C. for 18 hours, and then colony formation on the plate was checked. The minimum bactericidal concentration was defined as the minimum concentration of the peptide at which no colony was formed, and the experimental results are shown in Table 2 below.
# [2] = tested on: Klebsiella pneumoniae (ATCC 13883); details: ATCC 13883, 4 h
# Experimental: as §1, §2, §3
# [3] = tested on: Acinetobacter baumannii (ATCC 19606); details: ATCC 19606, 4 h
# Experimental: as §1, §2, §3
# [4] = tested on: Escherichia coli (ATCC 25922); details: ATCC 25922, 4 h
# Experimental: as §1, §2, §3
# [5] = tested on: Enterobacter aerogenes (ATCC 13048); details: ATCC 13048, 4 h
# Experimental: as §1, §2, §3
# [6] = tested on: Enterococcus faecium (ATCC 19434); details: ATCC 19434, 4 h
# Experimental: as §1, §2, §3
# [7] = tested on: Enterococcus faecalis (ATCC 19433); details: ATCC 19433, 4 h
# Experimental: as §1, §2, §3
# [8] = tested on: Bacillus subtilis (ATCC 6633); details: ATCC 6633, 4 h
# Experimental: as §1, §2, §3
# [9] = tested on: mouse red blood cells
# Experimental: Red blood cells were diluted with PBS, centrifuged 3 times at 900 g for 10 minutes, and washed. 100 μl of the diluted red blood cell solution (10% v/v PBS) was dispensed into each well of a 96-well microplate, and KU-5878, KU-5878-K4, KU-5878-K4-D, melittin, magainin 2 or daptomycin was added to each well which was then filled with PBS to 200 μl, followed by reaction by incubation at 37° C. for 1 hour. Then, the supernatant of the reaction solution was separated, and the absorbance at a wavelength of 550 nm was measured using a spectrophotometer. As control, PBS and 0.1% Triton X-100 (Triton X-100) solution were used.
# Based on the results of measurement of the absorbance, the degree of red blood cell destruction was calculated according to Equation 1 below, and the results of the calculation are shown in FIG. 6. % The intact RBC=100(%)−[(absorbance of peptide-treated red blood cell solution−absorbance of PBS-treated red blood cell solution)/(absorbance of Triton X-100-treated red blood cell solution−absorbance of PBS-treated red blood cell solution)×100(%)] [Equation 1]
# [10] = tested on: Methicillin-resistant Staphylococcus aureus (MRSA, ATCC 33591); assay: Minimum bactericidal concentration (MBC) assay
# Method in brief: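 Peptide at 0 to 300 μg/ml reacted 1 h at 37 °C with 1×10^5 CFU/ml bacteria in SP buffer (10 mM sodium phosphate, 1% TSB), bacteria pre-grown in 3% TSB. Aliquots then spread on TS agar and checked for colonies after 18 h at 37 °C.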
# [11] = tested on: Pseudomonas aeruginosa, Staphylococcus aureus, CRPA, MRSA; assay: Increase in antibacterial activity (MBC) compared with KU-5878
# [12] = tested on: CRPA; assay: Minimum bactericidal concentration (MBC) assay
# [13] = tested on: Pseudomonas aeruginosa (ATCC 27853); assay: Minimum bactericidal concentration (MBC) assay
# Method in brief: (§4)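 P. aeruginosa ATCC 27853 and S. aureus ATCC 29213 grown in 3% TSB at 37° C, 200 rpm, then diluted in SP buffer (10 mM sodium phosphate, 1% TSB). Peptides (0–300 μg/ml) exposed to 1×10^5 CFU/ml for 1 h at 37° C; aliquots plated on TS agar, 18 h. MBC = lowest concentration giving no colonies.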
# [14] = tested on: Staphylococcus aureus (ATCC 29213); assay: Minimum bactericidal concentration (MBC) assay
# Method in brief: as §4
# [15] = mark = antibacterial activity increased compared with KU-5878
Compound,"MBC MRSA ([10]; Tables 11-21, no unit printed) [µg/mL]","Increase in activity [11, 15]","MBC CRPA ([12]; Tables 11-21, no unit printed) [µg/mL]","MBC Pseudomonas aeruginosa ([13]; Tables 11-21, no unit printed) [µg/mL]","MBC Staphylococcus aureus ([14]; Tables 11-21, no unit printed) [µg/mL]",further results
KKMMKKGGKFGTFMAIGMGIR [KU-5878-K4],–,–,–,–,–,MBC value [1]: 5 µg/mL; MBC value [2]: 5 µg/mL; MBC value [3]: 4 µg/mL; MBC value [4]: 5 µg/mL; MBC value [5]: 5 µg/mL; MBC value [6]: 5 µg/mL; MBC value [7]: 5 µg/mL; MBC value [8]: 5 µg/mL; hemolysis of red blood cells [9]: little hemolysis
CC[C@H](C)[C@H](NC(=O)CNC(=O)[C@H](CCSC)NC(=O)CNC(=O)[C@@H](NC(=O)[C@H](C)NC(=O)[C@H](CCSC)NC(=O)[C@H](Cc1ccccc1)NC(=O)[C@@H](NC(=O)CNC(=O)[C@H](Cc1ccccc1)NC(=O)[C@@H](CCCCN)NC(=O)CNC(=O)CNC(=O)[C@@H](CCCCN)NC(=O)[C@@H](CCCCN)NC(=O)[C@H](CCSC)NC(=O)[C@H](CCSC)NC(=O)[C@@H](CCCCN)NC(=O)[C@@H](N)CCCCN)[C@@H](C)O)[C@@H](C)CC)C(=O)N[C@@H](CCCNC(=N)N)C(=O)O [KU-5878-K4-D] (H-K[dK]MM[dK][dK]GG[dK]FGTFMAIGMGIR-OH),–,–,–,–,–,hemolysis of red blood cells [9]: little hemolysis
KTMMQSGGTFGTFMAIG-GIR [Peptide 5878-d75M],110,0,100,100,100,–
d 60M 61M 71M 75M (KKGGKFGTF),–,–,–,–,–,MBC MRSA ([10]; MRSA): 2 µg/mL; Increase in activity ([11]; compared with KU-5878): ◯; MBC CRPA ([12]; CRPA): 2 µg/mL; MBC Pseudomonas aeruginosa ([13]; Pseudomonas aeruginosa): 2 µg/mL; MBC Staphylococcus aureus ([14]; Staphylococcus aureus): 1 µg/mL
KKMM-KGGKFGTF-AIGMGIR [Peptide K4-d62K-d71M],12,◯,12,12,12,–
KKMMKKGGKFGTF--IGMGIR [Peptide K4-d71M-d72A],20,◯,20,20,20,–
KKMM-KGGKF-TF--IG-GIR [d 62K 68G 71M 72A 75M],25,◯,20,20,20,–
KKMMKKGGKFGTF-AIG-GIR [Peptide K4-d71M-d75M],5,◯,4,4,3,–
KKMMKKGGKFG-F--IGMGIR [d 69T 71M 72A],4,◯,3,2,2,–
KKMM-KGGKFGTF-AIG-GIR [d 62K 71M 75M],3,◯,4,3,4,–
KKMMKKGGKFGTFMAIGM-IR [Peptide 5878-K4-d76G],4,◯,4,4,4,–

# From patent US12115209B2, “ROMO1-derived antimicrobial peptides including lysine substitution and variants thereof” (KOREA UNIVERSITY RESEARCH AND BUSINESS FOUNDATION, priority 2019, dated 2024)
